Experimental data: patent US20250059198A1, “BRM DEGRADING COMPOUNDS AND ASSOCIATED METHODS OF USE” (Arvinas Operations, Inc., priority 2021, published 2025)

Target: T1, BRM (Homo sapiens, UniProt P51531)
T1 construct: Western Blot Screen of BRM Degradation in SW1573 Cells; endogenous in cells; host or cells: SW1573 cells
Assay: BRM degradation (Dmax and DC50) in SW1573 cells, Western blot screen / In-Cell Western screen
Assay type: cell-based
Details: overnight (18-20 hours) treatment; for Dmax: read-out: Dmax (%)** (% degraded)
Procedure, shortened: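 Dmax and DC50 were derived from BRM levels normalised to an alpha-tubulin control, measured by chemiluminescent Western blotting of lysates or by PFA-fixed In-Cell Western on LI-COR Odyssey. SW1573 cells received compound overnight (18–20 h, 0.1% DMSO final).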

T1 sequence (P51531 whole entry): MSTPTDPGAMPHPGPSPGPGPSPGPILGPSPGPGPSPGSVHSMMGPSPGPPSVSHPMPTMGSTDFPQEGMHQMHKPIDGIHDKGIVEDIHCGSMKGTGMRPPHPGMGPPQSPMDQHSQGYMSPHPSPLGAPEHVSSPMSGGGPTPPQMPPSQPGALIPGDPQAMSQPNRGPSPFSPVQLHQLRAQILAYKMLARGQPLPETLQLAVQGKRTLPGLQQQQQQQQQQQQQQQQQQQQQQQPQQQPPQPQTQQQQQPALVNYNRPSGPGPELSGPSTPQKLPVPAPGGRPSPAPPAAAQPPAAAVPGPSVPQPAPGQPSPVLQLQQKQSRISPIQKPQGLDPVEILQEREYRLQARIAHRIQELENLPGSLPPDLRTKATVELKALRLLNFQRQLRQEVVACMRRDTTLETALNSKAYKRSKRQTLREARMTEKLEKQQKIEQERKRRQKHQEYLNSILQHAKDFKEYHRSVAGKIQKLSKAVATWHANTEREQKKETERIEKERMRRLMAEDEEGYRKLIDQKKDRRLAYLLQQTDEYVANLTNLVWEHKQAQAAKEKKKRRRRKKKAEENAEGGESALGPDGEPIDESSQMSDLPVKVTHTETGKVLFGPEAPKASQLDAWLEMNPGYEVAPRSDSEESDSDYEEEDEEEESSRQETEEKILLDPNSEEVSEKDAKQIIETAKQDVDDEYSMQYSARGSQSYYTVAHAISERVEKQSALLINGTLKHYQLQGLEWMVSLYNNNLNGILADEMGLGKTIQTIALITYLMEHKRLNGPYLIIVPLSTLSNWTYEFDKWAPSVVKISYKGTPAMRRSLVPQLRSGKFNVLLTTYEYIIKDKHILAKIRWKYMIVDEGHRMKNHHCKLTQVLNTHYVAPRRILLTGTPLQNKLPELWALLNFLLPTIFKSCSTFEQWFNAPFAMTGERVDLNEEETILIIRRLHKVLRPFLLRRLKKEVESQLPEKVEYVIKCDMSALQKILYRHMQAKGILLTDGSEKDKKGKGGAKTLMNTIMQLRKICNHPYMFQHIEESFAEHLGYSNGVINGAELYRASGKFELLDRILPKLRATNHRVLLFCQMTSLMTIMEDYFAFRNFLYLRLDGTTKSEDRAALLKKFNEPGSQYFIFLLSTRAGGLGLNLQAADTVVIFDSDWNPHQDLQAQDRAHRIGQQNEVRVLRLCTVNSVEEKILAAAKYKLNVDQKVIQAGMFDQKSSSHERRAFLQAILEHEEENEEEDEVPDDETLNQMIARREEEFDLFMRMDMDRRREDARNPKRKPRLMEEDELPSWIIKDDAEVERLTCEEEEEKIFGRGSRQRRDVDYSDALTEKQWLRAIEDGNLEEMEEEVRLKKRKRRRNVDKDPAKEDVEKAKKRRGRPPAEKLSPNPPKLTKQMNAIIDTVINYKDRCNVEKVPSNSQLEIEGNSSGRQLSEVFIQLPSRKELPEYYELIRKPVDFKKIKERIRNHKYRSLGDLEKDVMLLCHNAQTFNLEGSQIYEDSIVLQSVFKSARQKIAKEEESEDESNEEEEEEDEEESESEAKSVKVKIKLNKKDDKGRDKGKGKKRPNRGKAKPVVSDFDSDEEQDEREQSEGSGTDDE

Row | Structure (SMILES) | DC50 [nM] | Dmax [%]
1 | Cc1ncsc1-c1ccc([C@H](C)NC(=O)[C@@H]2C[C@@H](O)CN2C(=O)[C@@H](c2cc(N3CCC(CN4CCC5(CC4)CC(N4CCO[C@H](CN6C7CCC6CN(c6cc(-c8ccccc8O)nnc6N)C7)C4)C5)CC3)no2)C(C)C)cc1 [Compound 35, (2S,4R)-1-[(2R)-2-{3-[4-({2-[(2S)-2-({3-[3-amino-6-(2-hydroxyphenyl)pyridazin-4-yl]-3,8-diazabicyclo[3.2.1]octan-8-yl}methyl)morpholin-4-yl]-7-azaspiro[3.5]nonan-7-yl}methyl)piperidin-1-yl]-1,2-oxazol-5-yl}-3-methylbutanoyl]-4-hydroxy-N-[(1S)-1-[4-(4-methyl-1,3-thiazol-5-yl)phenyl]ethyl]pyrrolidine-2-carboxamide] | < 2.5 | > 75
2 | Cc1ncsc1-c1ccc([C@H](C)NC(=O)[C@@H]2C[C@@H](O)CN2C(=O)[C@@H](c2cc(N3CCC(CN4CCC5(CC4)CC(N4CCO[C@H](C(C)n6cc(-c7cc(-c8ccccc8O)nnc7N)cn6)C4)C5)CC3)no2)C(C)C)cc1 (stereo partly drawn) [Compound 88, (2S,4R)-1-[(2R)-2-{3-[4-({2-[(2S)-2-(1-(4-[3-amino-6-(2-hydroxyphenyl)pyridazin-4-yl]-1H-pyrazol-1-yl}ethyl)morpholin-4-yl]-7-azaspiro[3.5]nonan-7-yl}methyl)piperidin-1-yl]-1,2-oxazol-5-yl}-3-methylbutanoyl]-4-hydroxy-N-[(1S)-1-[4-(4-methyl-1,3-thiazol-5-yl)phenyl]ethyl]pyrrolidine-2-carboxamide] | < 2.5 | > 75
3 | Cc1ncsc1-c1ccc([C@H](C)NC(=O)[C@@H]2C[C@@H](O)CN2C(=O)[C@@H](c2cc(N3CCC(CN4CCC5(CC4)CC(CN4CCC(Oc6cc(N7C8CCC7CN(c7cc(-c9ccccc9O)nnc7N)C8)ccn6)CC4)C5)CC3)no2)C(C)C)cc1 [Compound 32, (2S,4R)-1-[(2R)-2-[3-(4-{[2-({4-[(4-{3-[3-amino-6-(2-hydroxyphenyl)pyridazin-4-yl]-3,8-diazabicyclo[3.2.1]octan-8-yl}pyridin-2-yl)oxy]piperidin-1-yl}methyl)-7-azaspiro[3.5]nonan-7-yl]methyl}piperidin-1-yl)-1,2-oxazol-5-yl]-3-methylbutanoyl]-4-hydroxy-N-[(1S)-1-[4-(4-methyl-1,3-thiazol-5-yl)phenyl]ethyl]pyrrolidine-2-carboxamide] | < 2.5 | > 75
4 | CC(C)[C@H](C(=O)N1C[C@H](O)C[C@H]1C(=O)N[C@@H](C)c1ccc(-c2scnc2C#CCOCCOCCOc2cc(N3C4CCC3CN(c3cc(-c5ccccc5O)nnc3N)C4)ccn2)cc1)N1Cc2ccccc2C1=O [Compound 86] | 2.5 to 10 | > 75
5 | CC(C)[C@@H](C(=O)N1C[C@H](O)C[C@H]1C(=O)N[C@@H](C)c1ccc(-c2scnc2C#CCOCCOCCOCCOCCOc2cc(N3C4CCC3CN(c3cc(-c5ccccc5O)nnc3N)C4)ccn2)cc1)N1Cc2ccccc2C1=O [Compound 83, (2S,4R)-N-[(1S)-1-[4-(4-{1-[(4-{3-[3-amino-6-(2-hydroxyphenyl)pyridazin-4-yl]-3,8-diazabicyclo[3.2.1]octan-8-yl}pyridin-2-yl)oxy]-3,6,9,12-tetraoxapentadec-14-yn-15-yl}-1,3-thiazol-5-yl)phenyl]ethyl]-4-hydroxy-1-[(2S)-3-methyl-2-(1-oxo-2,3-dihydro-1H-isoindol-2-yl)butanoyl]pyrrolidine-2-carboxamide] | ≥ 30 | –
6 | Cc1nccn1-c1ccc([C@H](C)NC(=O)[C@@H]2C[C@@H](O)CN2C(=O)[C@@H](c2cc(N3CCC(CN4CCC(O[C@H]5C[C@H](N6CCC(C(C)n7cc(C#Cc8cc(-c9ccccc9O)nnc8N)cn7)CC6)C5)CC4)CC3)no2)C(C)C)cc1 (stereo partly drawn) [Compound 91, (2S,4R)-4-hydroxy-N-[(1S)-1-[4-(2-methyl-1H-imidazol-1-yl)phenyl]ethyl]-1-[(2R)-3-methyl-2-{3-[4-({4-[(1r,3r)-3-{4-[1-(4-{2-[3-amino-6-(2-hydroxyphenyl)pyridazin-4-yl]ethynyl}-1H-pyrazol-1-yl)ethyl]piperidin-1-yl}cyclobutoxy]piperidin-1-yl}methyl)piperidin-1-yl]-1,2-oxazol-5-yl}butanoyl]pyrrolidine-2-carboxamide] | < 2.5 | > 75

Further lines, with some results ahead:

Row | DC50 [nM] | Structure (SMILES) | Dmax [%]
7 | < 2.5 | Cc1ncsc1-c1ccc([C@H](C)NC(=O)[C@@H]2C[C@@H](O)CN2C(=O)[C@@H](c2cc(N3CCC(CN4CC[C@H](OC(=O)N5CCN(c6cc(-c7ccccc7O)nnc6N)CC5)[C@H](F)C4)CC3)no2)C(C)C)cc1 [Compound 103, (3R,4S)-3-fluoro-1-[(1-{5-[(2R)-1-[(2S,4R)-4-hydroxy-2-{[(1S)-1-[4-(4-methyl-1,3-thiazol-5-yl)phenyl]ethyl]carbamoyl}pyrrolidin-1-yl]-3-methyl-1-oxobutan-2-yl]-1,2-oxazol-3-yl}piperidin-4-yl)methyl]piperidin-4-yl 4-[3-amino-6-(2-hydroxyphenyl)pyridazin-4-yl]piperazine-1-carboxylate] | > 75
8 | 2.5 to 10 | Cc1ncsc1-c1ccc([C@H](C)NC(=O)[C@@H]2C[C@@H](O)CN2C(=O)[C@@H](c2cc(N3CCC(CN4CC[C@@H](OC(=O)N5CCN(c6cc(-c7ccccc7O)nnc6N)CC5)[C@H](F)C4)CC3)no2)C(C)C)cc1 [Compound 102, (3R,4R)-3-fluoro-1-[(1-{5-[(2R)-1-[(2S,4R)-4-hydroxy-2-{[(1S)-1-[4-(4-methyl-1,3-thiazol-5-yl)phenyl]ethyl]carbamoyl}pyrrolidin-1-yl]-3-methyl-1-oxobutan-2-yl]-1,2-oxazol-3-yl}piperidin-4-yl)methyl]piperidin-4-yl 4-[3-amino-6-(2-hydroxyphenyl)pyridazin-4-yl]piperazine-1-carboxylate] | > 75
9 | < 2.5 | Cc1ncsc1-c1ccc([C@H](C)NC(=O)[C@@H]2C[C@@H](O)CN2C(=O)[C@@H](c2cc(N3CCC(CN4CCC(O[C@H]5C[C@@H](N6CCC([C@@H](C)n7cc(-c8cc(-c9ccccc9O)nnc8N)cn7)CC6)C5)CC4)CC3)no2)C(C)C)cc1 (single isomer, unassigned) [Compound 6] | > 75
